Key:
dayflower [1] = assay: Test E preemergence; format: in vivo, Commelina virginica; settings: for Dayflower, VA plant response rating: scale 0 to 100 (0 no effect, 100 complete control); for Plant response rating, Dayflower, VA: scale 0 to 100, 0 no effect, 100 complete control
Excerpt: (§1) Seeds of plant species selected from corn (Zea mays), soybean (Glycine max), velvetleaf (Abutilon theophrasti), lambsquarters (Chenopodium album), wild poinsettia (Euphorbia heterophylla), palmer pigweed (Amaranthus palmeri), waterhemp (common waterhemp, Amaranthus rudis), surinam grass (Brachiaria decumbens), large (Lg) crabgrass (Digitaria sanguinalis), Brazilian crabgrass (Digitaria horizontalis), fall panicum (Panicum dichotomiflorum), giant foxtail (Setaria faberii), green foxtail (Setaria viridis), goosegrass (Eleusine indica), johnsongrass (Sorghum halepense), ragweed (common ragweed, Ambrosia elatior), barnyardgrass (Echinochloa crus-galli), sandbur (southern sandbur, Cenchrus echinatus), arrowleaf sida (Sida rhombifolia), Italian ryegrass (Lolium multiflorum), dayflower (Virginia (VA) dayflower, Commelina virginica), field bindweed (Convolvulus arvensis), morningglory (Ipomoea coccinea), nightshade (eastern black nightshade, Solanum ptycanthum), kochia (Kochia scoparia), yellow nutsedge (Cyperus esculentus), cocklebur (common cocklebur, Xanthium strumarium), smartweed (ladysthumb smartweed, and hairy beggarticks (Bidens pilosa), were planted into a silt loam soil and treated preemergence with test chemicals formulated in a non-phytotoxic solvent mixture which included a surfactant.
(§2) At the same time, plants from these crop and weed species and also horseweed (Canada horseweed, Conyza canadensis), waterhemp_RES1, (ALS & Triazine resistant common waterhemp, Amaranthus rudis), and waterhemp_RES2, (ALS & HPPD resistant common waterhemp, Amaranthus rudis) were planted in pots containing Redi-Earth® planting medium (Scotts Company, 14111 Scottslawn Road, Marysville, Ohio 43041) comprising spaghnum peat moss, vermiculite, wetting agent and starter nutrients were treated with postemergence applications of test chemicals formulated in the same manner. Plants ranged in height from 2 to 18 cm for postemergence treatments (1- to 4-leaf stage). Treated plants and controls were maintained in a greenhouse for 14 to 21 days, after which time all species were compared to controls and visually evaluated. Plant response ratings, summarized in Table E, are based on a scale of 0 to 100 where 0 is no effect and 100 is complete control. A dash (-) response means no test result.

arrowleaf sida = assay: Test E preemergence; format: in vivo, Sida rhombifolia; settings: for Arrowleaf Sida plant response rating: scale 0 to 100 (0 no effect, 100 complete control); for Plant response rating, Arrowleaf Sida: scale 0 to 100, 0 no effect, 100 complete control
In short: (§3)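 Response was scored visually on a 0-100 scale (100 = complete control) versus controls after 14 to 21 days in the greenhouse. Test chemicals, formulated with surfactant in a non-phytotoxic solvent mixture, had been applied preemergence to seeds in silt loam soil or postemergence to 1- to 4-leaf plants in potting medium.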

field bindweed [2] = assay: Test E preemergence; format: in vivo, Convolvulus arvensis; settings: for Field Bindweed plant response rating: scale 0 to 100 (0 no effect, 100 complete control); for Plant response rating, Field Bindweed: scale 0 to 100, 0 no effect, 100 complete control
In short: as §3

sandbur = assay: Test E postemergence; format: in vivo, Cenchrus echinatus; settings: Cenchrus echinatus, post-emergence, read-out: Plant response rating, Sandbur
In short: as §3

dayflower [3] = assay: Test E postemergence; format: in vivo, Commelina virginica; settings: Commelina virginica, post-emergence, read-out: Plant response rating, Dayflower, VA
In short: as §3

soybean = assay: Test E preemergence; format: in vivo, Glycine max; settings: for Soybean plant response rating: scale 0 to 100 (0 no effect, 100 complete control); for Plant response rating, Soybean: scale 0 to 100, 0 no effect, 100 complete control
In short: as §3

Italian ryegrass = assay: Test E preemergence; format: in vivo, Lolium multiflorum; settings: for Ryegrass, Italian plant response rating: scale 0 to 100 (0 no effect, 100 complete control); for Plant response rating, Ryegrass, Italian: scale 0 to 100, 0 no effect, 100 complete control
In short: as §3

hairy beggarticks = assay: Test E preemergence; format: in vivo, Bidens pilosa; settings: for Beggarticks plant response rating: scale 0 to 100 (0 no effect, 100 complete control); for Plant response rating, Beggarticks: scale 0 to 100, 0 no effect, 100 complete control
Excerpt: as §1, §2

wild poinsettia = assay: Test E postemergence; format: in vivo, Euphorbia heterophylla; settings: Euphorbia heterophylla, post-emergence, read-out: Plant response rating, Poinsettia, Wild
In short: as §3

johnsongrass = assay: Test E preemergence; format: in vivo, Sorghum halepense; settings: for Johnsongrass plant response rating: scale 0 to 100 (0 no effect, 100 complete control); for Plant response rating, Johnsongrass: scale 0 to 100, 0 no effect, 100 complete control
Excerpt: as §1, §2

waterhemp = assay: Test E postemergence; format: in vivo, Amaranthus rudis; settings: Amaranthus tuberculatus, post-emergence, read-out: Plant response rating, Waterhemp
In short: as §3

[4] = tested on: waterhemp_RES2 (ALS & HPPD resistant common waterhemp); assay: Test E postemergence; format: in vivo, Amaranthus rudis; settings: Amaranthus tuberculatus, post-emergence, read-out: Plant response rating, Waterhemp_RES2
In short: as §3

field bindweed [5] = assay: Test E postemergence; format: in vivo, Convolvulus arvensis; settings: Convolvulus arvensis, post-emergence, read-out: Plant response rating, Field Bindweed
In short: as §3

ragweed = assay: Test E preemergence; format: in vivo, Ambrosia elatior; settings: for Ragweed plant response rating: scale 0 to 100 (0 no effect, 100 complete control); for Plant response rating, Ragweed: scale 0 to 100, 0 no effect, 100 complete control
In short: as §3

[6] = Postemergence, 31 g ai/ha, scale 0 to 100
[7] = Postemergence, 62 g ai/ha, scale 0 to 100
[8] = Postemergence, 125 g ai/ha, scale 0 to 100
[9] = postemergence, 16 g ai/ha, scale 0 to 100, 0 no effect, 100 complete control

## N#Cc1cccc(Oc2ncc(Cl)cn2)c1-n1cc(Br)cn1 [Compound 52, 2-(4-bromo-1H-pyrazol-1-yl)-3-[(5-chloro-2-pyrimidinyl)oxy]benzonitrile]
Dayflower [1]; 16 g ai/ha
  Dayflower, VA plant response rating: 0
Dayflower [1]; 31 g ai/ha
  Dayflower, VA plant response rating: 0
Dayflower [1]; 62 g ai/ha
  Dayflower, VA plant response rating: 5
Dayflower [1]; 125 g ai/ha
  Plant response rating, Dayflower, VA: 70
Dayflower [1]; 250 g ai/ha
  Plant response rating, Dayflower, VA: 98
Arrowleaf sida; 16 g ai/ha, preemergence
  Arrowleaf Sida plant response rating: 35
Arrowleaf sida; 31 g ai/ha, preemergence
  Arrowleaf Sida plant response rating: 40
Arrowleaf sida; Preemergence, 62 g ai/ha
  Plant response rating, Arrowleaf Sida: 60
Arrowleaf sida; preemergence, 125 g ai/ha
  Plant response rating, Arrowleaf Sida: 80
Arrowleaf sida; preemergence, 250 g ai/ha
  Plant response rating, Arrowleaf Sida: 100
Field bindweed [2]; 16 g ai/ha
  Field Bindweed plant response rating: 0
Field bindweed [2]; 31 g ai/ha
  Field Bindweed plant response rating: 0
Field bindweed [2]; 62 g ai/ha
  Field Bindweed plant response rating: 25
Field bindweed [2]; 125 g ai/ha
  Plant response rating, Field Bindweed: 80
Field bindweed [2]; 250 g ai/ha
  Plant response rating, Field Bindweed: 95
sandbur; [6]
  pest or weed control at 31 g/ha: 10%
sandbur; [7]
  pest or weed control at 62 g/ha: 25%
sandbur; [8]
  pest or weed control at 125 g/ha: 20%
sandbur; [9]
  pest or weed control at 16 g/ha: 15%
Dayflower [3]; [6]
  pest or weed control at 31 g/ha: 40%
Dayflower [3]; [7]
  pest or weed control at 62 g/ha: 50%
Dayflower [3]; [8]
  pest or weed control at 125 g/ha: 60%
Dayflower [3]; [9]
  pest or weed control at 16 g/ha: 30%
soybean; 16 g ai/ha
  Soybean plant response rating: 0
soybean; 31 g ai/ha
  Soybean plant response rating: 0
soybean; 62 g ai/ha
  Soybean plant response rating: 0
soybean; 125 g ai/ha
  Plant response rating, Soybean: 60
soybean; 250 g ai/ha
  Plant response rating, Soybean: 90
Italian ryegrass; 16 g ai/ha
  Ryegrass, Italian plant response rating: 0
Italian ryegrass; 31 g ai/ha
  Ryegrass, Italian plant response rating: 0
Italian ryegrass; 62 g ai/ha
  Ryegrass, Italian plant response rating: 0
Italian ryegrass; 125 g ai/ha
  Plant response rating, Ryegrass, Italian: 60
Italian ryegrass; 250 g ai/ha
  Plant response rating, Ryegrass, Italian: 90
Hairy beggarticks; 16 g ai/ha, preemergence
  Beggarticks plant response rating: 0
Hairy beggarticks; 31 g ai/ha, preemergence
  Beggarticks plant response rating: 0
Hairy beggarticks; Preemergence, 62 g ai/ha
  Plant response rating, Beggarticks: 0
Hairy beggarticks; preemergence, 125 g ai/ha
  Plant response rating, Beggarticks: 40
Hairy beggarticks; preemergence, 250 g ai/ha
  Plant response rating, Beggarticks: 65
Wild poinsettia; [6]
  pest or weed control at 31 g/ha: 40%
Wild poinsettia; [7]
  pest or weed control at 62 g/ha: 50%
Wild poinsettia; [8]
  pest or weed control at 125 g/ha: 70%
Wild poinsettia; [9]
  pest or weed control at 16 g/ha: 45%
johnsongrass; 16 g ai/ha
  Johnsongrass plant response rating: 0
johnsongrass; 31 g ai/ha
  Johnsongrass plant response rating: 0
johnsongrass; 62 g ai/ha
  Johnsongrass plant response rating: 30
johnsongrass; 125 g ai/ha
  Plant response rating, Johnsongrass: 70
johnsongrass; 250 g ai/ha
  Plant response rating, Johnsongrass: 98
waterhemp; [6]
  pest or weed control at 31 g/ha: 70%
waterhemp; [7]
  pest or weed control at 62 g/ha: 75%
waterhemp; [8]
  pest or weed control at 125 g/ha: 95%
waterhemp; [9]
  pest or weed control at 16 g/ha: 65%
[4]; [6]
  pest or weed control at 31 g/ha: 90%
[4]; [7]
  pest or weed control at 62 g/ha: 95%
[4]; [8]
  pest or weed control at 125 g/ha: 90%
[4]; [9]
  pest or weed control at 16 g/ha: 80%
Field bindweed [5]; [6]
  pest or weed control at 31 g/ha: 50%
Field bindweed [5]; [7]
  pest or weed control at 62 g/ha: 65%
Field bindweed [5]; [8]
  pest or weed control at 125 g/ha: 65%
Field bindweed [5]; [9]
  pest or weed control at 16 g/ha: 50%
ragweed; 16 g ai/ha
  Ragweed plant response rating: 0
ragweed; 31 g ai/ha
  Ragweed plant response rating: 0
ragweed; 62 g ai/ha
  Ragweed plant response rating: 0
ragweed; 125 g ai/ha
  Plant response rating, Ragweed: 5
ragweed; 250 g ai/ha
  Plant response rating, Ragweed: 70

— US9695155B2, “Herbicidal substituted pyrimidinyloxy benzene compounds” (E. I. DU PONT DE NEMOURS AND COMPANY, priority 2013, dated 2017)
